Source: ChEMBL document CHEMBL4819021, “Paratrimerins J-Y, Dimeric Coumarins Isolated from the Stems of Paramignya trimera” (J Nat Prod, 2021)
Active and inactive are the calls of the source.

What was measured:
Assay type in all cases: functional, cell-based
T47D = assay: Cytotoxicity against human T47D cells assessed as reduction in cell viability at 40 uM measured after 72 hrs by MTS assay
MDA-MB-231 = assay: Cytotoxicity against human MDA-MB-231 cells assessed as reduction in cell viability at 40 uM measured after 72 hrs by MTS assay
HCC38 = assay: Cytotoxicity against human HCC38 cells assessed as reduction in cell viability at 40 uM measured after 72 hrs by MTS assay
MDA-MB-435 = assay: Cytotoxicity against human MDA-MB-435 cells assessed as reduction in cell viability at 40 uM measured after 72 hrs by MTS assay
COLO 205 = assay: Cytotoxicity against human COLO 205 cells assessed as reduction in cell viability at 40 uM measured after 72 hrs by MTS assay
KM12 = assay: Cytotoxicity against human KM12 cells assessed as reduction in cell viability at 40 uM measured after 72 hrs by MTS assay
HCC70 = assay: Cytotoxicity against human HCC70 cells assessed as reduction in cell viability at 40 uM measured after 72 hrs by MTS assay
HCT-8 = assay: Cytotoxicity against human HCT-8 cells assessed as reduction in cell viability at 40 uM measured after 72 hrs by MTS assay
MDA-MB-468 = assay: Cytotoxicity against human MDA-MB-468 cells assessed as reduction in cell viability at 40 uM measured after 72 hrs by MTS assay
SW480 = assay: Cytotoxicity against human SW480 cells assessed as reduction in cell viability at 40 uM measured after 72 hrs by MTS assay
HCC1428 = assay: Cytotoxicity against human HCC1428 cells assessed as reduction in cell viability at 40 uM measured after 72 hrs by MTS assay
HCT-116 = assay: Cytotoxicity against human HCT-116 cells assessed as reduction in cell viability at 40 uM measured after 72 hrs by MTS assay
SK-BR-3 = assay: Cytotoxicity against human SK-BR-3 cells assessed as reduction in cell viability at 40 uM measured after 72 hrs by MTS assay
SW-620 = assay: Cytotoxicity against human SW-620 cells assessed as reduction in cell viability at 40 uM measured after 72 hrs by MTS assay
RKO = assay: Cytotoxicity against human RKO cells assessed as reduction in cell viability at 40 uM measured after 72 hrs by MTS assay
SK-HEP1 = assay: Cytotoxicity against human SK-HEP1 cells assessed as reduction in cell viability at 40 uM measured after 72 hrs by MTS assay
MCF7 = assay: Cytotoxicity against human MCF7 cells assessed as reduction in cell viability at 40 uM measured after 72 hrs by MTS assay
BT-549 = assay: Cytotoxicity against human BT-549 cells assessed as reduction in cell viability at 40 uM measured after 72 hrs by MTS assay
Hs-578T = assay: Cytotoxicity against human Hs-578T cells assessed as reduction in cell viability at 40 uM measured after 72 hrs by MTS assay

Measured: Activity

CC1=C[C@H](c2cc3ccc(=O)oc3cc2O[C@@H]2O[C@H](CO)[C@@H](O)[C@H](O)[C@H]2O)[C@](C)(/C=C/c2cc3ccc(=O)oc3cc2O[C@@H]2O[C@H](CO[C@@H]3OC[C@](O)(CO)[C@H]3O)[C@@H](O)[C@H](O)[C@H]2O)CC1
inactive: all assays above

CC1=C[C@H](c2cc3ccc(=O)oc3cc2O[C@@H]2O[C@H](CO[C@@H]3OC[C@](O)(CO)[C@H]3O)[C@@H](O)[C@H](O)[C@H]2O)[C@](C)(/C=C/c2cc3ccc(=O)oc3cc2O[C@@H]2O[C@H](CO)[C@@H](O)[C@H](O)[C@H]2O)CC1
inactive: all assays above

CC1=C[C@@H](c2cc3ccc(=O)oc3cc2O[C@@H]2O[C@H](CO)[C@@H](O)[C@H](O)[C@H]2O)[C@@](C)(/C=C/c2cc3ccc(=O)oc3cc2O[C@@H]2O[C@H](CO)[C@@H](O)[C@H](O)[C@H]2O)CC1
inactive: all assays above

CC1=C[C@H](c2cc3ccc(=O)oc3cc2O[C@@H]2O[C@H](CO)[C@@H](O)[C@H](O)[C@H]2O)[C@](C)(/C=C/c2cc3ccc(=O)oc3cc2O[C@@H]2O[C@H](COC3OC[C@@H](O)[C@H](O)[C@H]3O)[C@@H](O)[C@H](O)[C@H]2O)CC1 (stereo partly specified)
inactive: all assays above
